Test results reported in patent US8143259B2, “Cold menthol receptor antagonists” (Janssen Pharmaceutica, NV, priority 2008, dated 2012).
“And” between values parts separate entries of the source, which are not always exact repeats. Equal values may be shown once.

Tests used:
[1] = test system: icilin-induced “wet-dog” shakes; experiment: Reversal of Icilin-Induced Behaviors in Rats; type: in vivo; conditions: percent inhibition (reversal) of wet-dog shakes, rat, 30 mg/kg P.O., 20′ post-icilin
Protocol: (§1) Similar shaking or jumping behavior was also evident in mice, rabbits, cats, dogs and monkeys. In humans, icilin produced a sensation of coolness on contact with mucous membranes, cold prickling when 0.1 mg was dropped on the tongue and coldness in the mouth, pharynx and chest lasting 30-60 minutes when 5-10 mg was ingested orally (Wei E T, Seid D A, J Pharm Pharmacol. 1983, 35, 110). The inhibition or reversal of icilin-induced shaking behaviors in rodents provides evidence for the utility of TRPM8 antagonists of the formula (I) in treating or preventing a disease, syndrome, disorder or condition in a subject in which the disease, syndrome, disorder or condition is affected by the modulation of TRPM8 receptors.
Male Sprague Dawley rats (225-450 g, Charles River Labs, n=4-6/treatment) were used to evaluate the ability of selected compounds of the formula (I) to reverse icilin-induced “wet-dog” shakes. Icilin was administered in PEG-400 or 10% solutol/H2O, at 1.0 or 3.0 mg/kg, i.p. and spontaneous “wet-dog” shakes (WDS) were counted 10-20 minutes post-icilin. […] Results are presented as a percent inhibition of shakes, which was calculated as [1−(test compound WDS count/vehicle WDS count)]×100.

canine TRPM8 = biological target: T1, canine TRPM8 (Canis lupus familiaris, UniProt Q1A7N1); experiment: In Vitro Canine TRPM8 Functional Assay (Ca2+ fluorescence, icilin activation); type: cell-based; conditions: for inhibition at 0.5 µM: HEK293, 0.5 μM compound; for IC50: HEK293 cells stably expressing canine TRPM8, icilin activation, Ca2+ fluorescence; for % Inh @ 0.5 μM: 0.5 μM compound; for inhibition at 0.2 µM: HEK293, 0.2 μM compound
T1 construct: expressed in transfected cells
How it was run: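 HEK293 cells stably expressing canine TRPM8, loaded with Calcium 3 dye; compounds added 5 min before icilin at a concentration giving ~80% maximal response. Peak icilin-evoked Ca2+ fluorescence, basal-subtracted and normalised to maximal response, fitted by sigmoidal nonlinear regression; quadruplicate wells.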

[2] = test system: icilin-induced “wet-dog” shakes; experiment: Inhibition of Icilin-Induced “Wet-Dog” Shakes in Rats; type: in vivo; conditions: percent inhibition of wet-dog shakes; rat; 30 mg/kg p.o., 10% solutol, 2 h pre-icilin
Protocol: as §1
Male Sprague Dawley rats ([…], Charles River Labs, n=6-9/treatment) were used to evaluate the ability of selected compounds of the formula (I) to block icilin-induced “wet-dog” shakes (WDS). […] Icilin was administered in PEG-400 or 10% solutol/H2O, at 1.0 or 3.0 mg/kg, i.p. and spontaneous “wet-dog” shakes were counted 10-20 minutes post-icilin. Results are presented as a percent inhibition of shakes, which was calculated as [1−(test compound WDS count/vehicle WDS count)]×100.

T1 sequence (Q1A7N1 1-1104): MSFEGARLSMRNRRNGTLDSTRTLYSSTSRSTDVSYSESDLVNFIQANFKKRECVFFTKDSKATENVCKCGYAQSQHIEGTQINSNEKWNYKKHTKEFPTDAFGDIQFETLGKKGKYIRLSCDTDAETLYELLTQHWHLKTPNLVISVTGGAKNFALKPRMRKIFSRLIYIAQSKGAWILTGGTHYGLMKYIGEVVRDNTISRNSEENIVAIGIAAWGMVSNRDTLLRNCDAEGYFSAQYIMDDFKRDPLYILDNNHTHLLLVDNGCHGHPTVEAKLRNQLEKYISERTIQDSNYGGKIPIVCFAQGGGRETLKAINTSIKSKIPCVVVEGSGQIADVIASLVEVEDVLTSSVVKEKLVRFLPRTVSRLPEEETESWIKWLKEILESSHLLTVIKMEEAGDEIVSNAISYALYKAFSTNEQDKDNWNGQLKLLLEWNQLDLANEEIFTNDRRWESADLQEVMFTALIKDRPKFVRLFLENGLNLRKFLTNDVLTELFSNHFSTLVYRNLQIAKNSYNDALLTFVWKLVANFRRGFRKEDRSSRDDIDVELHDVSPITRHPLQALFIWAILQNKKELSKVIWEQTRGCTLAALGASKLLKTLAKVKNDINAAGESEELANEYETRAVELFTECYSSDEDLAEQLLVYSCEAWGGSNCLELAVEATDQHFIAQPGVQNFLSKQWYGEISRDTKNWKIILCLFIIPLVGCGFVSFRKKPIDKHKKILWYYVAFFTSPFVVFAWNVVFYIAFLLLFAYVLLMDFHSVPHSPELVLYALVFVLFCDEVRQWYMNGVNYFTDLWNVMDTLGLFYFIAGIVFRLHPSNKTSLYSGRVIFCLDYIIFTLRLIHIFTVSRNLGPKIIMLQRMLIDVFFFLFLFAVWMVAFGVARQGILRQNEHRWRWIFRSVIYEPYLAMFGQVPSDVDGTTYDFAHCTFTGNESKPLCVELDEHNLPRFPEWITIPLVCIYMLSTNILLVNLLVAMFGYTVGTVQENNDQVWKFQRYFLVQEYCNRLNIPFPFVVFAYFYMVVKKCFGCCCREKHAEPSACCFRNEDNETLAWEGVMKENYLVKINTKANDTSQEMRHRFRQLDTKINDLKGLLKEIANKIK

Structure (SMILES)	IC50 (canine TRPM8)	inhibition at 0.2 µM (canine TRPM8; canine TRPM8 HEK293, icilin)	other results
O=C(C(Nc1ccccc1F)c1ccc(C(F)(F)F)cc1)N1CCCC1c1ccccc1 (single isomer, unassigned) [Cpd 128]	4.6 nM		% Inh ([1]; 30 mg/kg): 56% ± 19%; inhibition at 0.5 µM (canine TRPM8; canine TRPM8 HEK293, icilin): 100%
O=C(C(Nc1ccccc1F)c1ccc(C(F)(F)F)cc1)N1CCCC1c1ccccc1 (single isomer, unassigned) [Cpd 129]	43 nM		% Inh ([1]; 30 mg/kg): 50% ± 21%; % Inh @ 0.5 μM (canine TRPM8; canine TRPM8 HEK293, icilin): 101%
O=C(C(Nc1ccccc1F)c1ccc(C(F)(F)F)cc1)N1CCCC1c1ccccc1F (single isomer, unassigned) [Cpd 149]	45 nM and 74 nM	83%	% Inh ([1]; 30 mg/kg): 61% ± 15%; inhibition at 0.5 µM (canine TRPM8; canine TRPM8 HEK293, icilin): 101%
O=C(C(Nc1ccccc1F)c1ccc(C(F)(F)F)cc1)N1CCCC1c1ccccc1F (single isomer, unassigned) [Cpd 151]	7.2 nM and 5 nM		% Inh [2]: 100%; % Inh ([1]; 30 mg/kg): 99% ± 1%; % Inh @ 0.2 μM (canine TRPM8; 0.2 μM compound, canine TRPM8 HEK293, icilin, 0.2 µM): 103%; % Inh @ 0.5 μM (canine TRPM8; canine TRPM8 HEK293, icilin): 100.72%
O=C(C(Nc1ccccc1F)c1ccc(C(F)(F)F)cc1)N1CCCC1c1ccccc1Cl (single isomer, unassigned) [Cpd 155]	17 nM		% Inh [1]: 79% ± 13%; inhibition at 0.5 µM (canine TRPM8; canine TRPM8 HEK293, icilin): 99%
O=C(C(Nc1ccccc1F)c1ccc(Cl)cc1)N1CCCC1c1ccccc1F (single isomer, unassigned) [Cpd 158]	5 nM		% Inh [1]: 86% ± 7%; % Inh @ 0.5 μM (canine TRPM8; canine TRPM8 HEK293, icilin): 98%
O=C(C(Nc1ccccc1F)c1ccc(C(F)(F)F)cc1)N1CCCC1c1cccc(F)c1 (stereo not drawn) [Cpd 134]	14 nM and 8.7 nM		% Inh [1]: 75% ± 11%; % Inh @ 0.5 μM (canine TRPM8; canine TRPM8 HEK293, icilin): 98%
O=C(C(Nc1ccccc1F)c1ccc(C(F)(F)F)cc1)N1CCC[C@H]1c1ccccc1F (stereo partly drawn) [Cpd 150, 2-(2-Fluoro-phenylamino)-1-[(2S)-2-(2-fluoro-phenyl)-pyrrolidin-1-yl]-2-(4-trifluoromethyl-phenyl)-ethanone]	12 nM and 4 nM	89%	% Inh [1]: 63% ± 15%; inhibition at 0.5 µM (canine TRPM8; canine TRPM8 HEK293, icilin): 100%
CC(=O)N(c1ccccc1F)[C@H](C(=O)N1CCC[C@H]1c1ccccc1F)c1ccc(C(F)(F)F)cc1 [Cpd 318, N-(2-Fluoro-phenyl)-N-[2-[(2S)-2-(2-fluoro-phenyl)-pyrrolidin-1-yl]-2-oxo-(1S)-1-(4-trifluoromethyl-phenyl)-ethyl]-acetamide]		47%	
O=C(C(Nc1ccccc1F)c1cc2ccccc2s1)N1CCCC1c1cccnc1 (stereo not drawn) [Cpd 319]	25 nM	94%	
O=C(C(Nc1ccccc1F)c1cc2ccccc2s1)N1CCCC1c1ccccn1 (stereo not drawn) [Cpd 321]	8 nM	94%	
COC(=O)c1cccc(C2CCCN2C(=O)C(Nc2ccccc2F)c2cc3ccccc3s2)c1 (stereo not drawn) [Cpd 324, 3-{1-[2-Benzo[b]thiophen-2-yl-2-(2-fluoro-phenylamino)-acetyl]-pyrrolidin-2-yl}-benzoic acid methyl ester]	28 nM	101%	
COC(=O)c1ccc(C2CCCN2C(=O)C(Nc2ccccc2F)c2cc3ccccc3s2)cc1 (stereo not drawn) [Cpd 325]	62 nM	101%	
O=C(O)c1cccc(C2CCCN2C(=O)C(Nc2ccccc2F)c2cc3ccccc3s2)c1 (stereo not drawn) [Cpd 326, 3-{1-[2-Benzo[b]thiophen-2-yl-2-(2-fluoro-phenylamino)-acetyl]-pyrrolidin-2-yl}-benzoic acid]	78 nM	97%	
O=C(C(Nc1ccccc1F)c1cc2cccnc2s1)N1CCCC1c1ccccc1F (stereo not drawn) [Cpd 328]	8 nM	101%	
O=C(C(Nc1ccccc1F)c1ccc(-n2ccnc2)cc1)N1CCCC1c1ccccc1Cl (stereo not drawn) [Cpd 342]	28 nM	100%	

Structure (SMILES)	IC50 (canine TRPM8)	inhibition at 0.2 µM (canine TRPM8; canine TRPM8 HEK293, icilin)	other results
O=C(C(Nc1ccccc1F)c1ccc(-c2cccnc2)cc1)N1CCCC1c1ccccc1Cl (stereo not drawn) [Cpd 343]	17 nM	101%	
O=C(C(Nc1ccccc1F)c1ccc(C(F)(F)F)cc1)N1CCCC1c1cncc(Br)c1 (stereo not drawn) [Cpd 344]	44 nM	98%	
O=C(O)c1ccc(-c2ccc(C(Nc3ccccc3F)C(=O)N3CCCC3c3ccccc3Cl)cc2)cc1 (stereo not drawn) [Cpd 350]	42 nM	99%	
COC(=O)c1ccc(C2CCCN2C(=O)C(Nc2ccccc2F)c2ccc3c(c2)CCO3)cc1 (stereo not drawn) [Cpd 351]	92 nM	83%	
COC(=O)c1ccc(C2CCCN2C(=O)C(Nc2ccccc2F)c2ccc(-c3ccccn3)cc2)cc1 (stereo not drawn) [Cpd 352]	115 nM	88%	
O=C(C(Nc1ccccc1F)c1ccc(-c2ccc(-c3nnn[nH]3)cc2)cc1)N1CCC[C@H]1c1ccccc1F (stereo partly drawn) [Cpd 354, 2-(2-Fluoro-phenylamino)-1-[(2S)-2-(2-fluoro-phenyl)-pyrrolidin-1-yl]-2-[4′-(1H-tetrazol-5-yl)-biphenyl-4-yl]-ethanone]		53%	
O=C(C(Nc1ccccc1F)c1ccc(N2CCOCC2)nc1)N1CCCC1c1ccccc1F (stereo not drawn) [Cpd 359]	7 nM	100%	
O=C(C(Nc1c(F)cccc1F)c1cc2ccccc2s1)N1CCCC1c1ccccc1F (stereo not drawn) [Cpd 361]	8 nM	96%	
O=C(C(c1ccc(C(F)(F)F)cc1)N1CCCc2ccccc21)N1Cc2ccccc2C1 (stereo not drawn) [Cpd 363]	134 nM	72%	
O=C(C(Nc1ccccc1F)c1ccc(Cl)cc1)N1CCCc2ccccc21 (stereo not drawn) [Cpd 364]	36 nM	91%	
O=C(C(Nc1ccccc1F)c1ccc(Br)cc1)N1CCCc2ccccc21 (stereo not drawn) [Cpd 365]	30 nM	94%	
O=C(C(Nc1c(F)cccc1F)c1ccc(Cl)cc1)N1CCCc2ccccc21 (stereo not drawn) [Cpd 366]	46 nM	98%	
O=C(C(Nc1ccccc1F)c1cc2ccccc2s1)N1Cc2cccnc2C1 (stereo not drawn) [Cpd 370]	120 nM		
O=C(C(Nc1ccccc1F)c1cnc2ccccc2c1)N1Cc2ccccc2C1 (stereo not drawn) [Cpd 371]	100 nM		
O=C(C(Nc1ccccc1F)c1cnc2ccccc2c1)N1CCCC1c1ccccc1Cl (stereo not drawn) [Cpd 373]	6 nM		
